The results in this text go back to patent publication US20120101093A1, “SUBSTITUTED IMIDAZO[1,2-A]PYRIDINE DERIVATIVES, PHARMACEUTICAL COMPOSITIONS, AND METHODS OF USE AS BETA-SECRETASE INHIBITORS” (HIGH POINT PHARMACEUTICALS, LLC, priority 2009, published 2012).

Experiment [1] concerns Aβ1-40 secreted from HEK293 cells stably expressing wildtype human APP695 protein (HEK-APPwt cells). The experiment in a line: Aβ Cell Based Assay (Aβ1-40 secretion, ELISA). The note with it: Homo sapiens, HEK293, 6 h, 6 hours incubation, reduction of Aβ1-40 secretion. The gist of the method:
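Cells in DMEM with 2% FBS exposed to ten compound concentrations for 6 h at 37 °C. Secreted Aβ1-40 in supernatant quantified by sandwich ELISA (82E1 capture, TMB, OD450). EC50 from percent inhibition, DAPT defining 100% inhibition, non-linear fit.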

Another experiment addresses T1, BACE-1 enzyme (Homo sapiens, UniProt P56817).
T1 construct: purchased R & D Systems 931AS
The experiment in a line: BACE Fluorescence Resonance Energy Transfer (FRET) Assay. It is filed as biochemical. The note with it: pH 4-4.5, 30 min pre-incubation, about 1.5 hours reaction. The gist of the method: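 Fluorescence (ex 540, em 585 nm) after ~1.5 h room-temperature cleavage of a quenched rhodamine peptide tracks BACE-1 activity. Enzyme and compound first sit 30 min in pH 4-4.5 acetate buffer with CHAPS, Triton X-100, EDTA, 7.5% DMSO. Values given as IC50 or % inhibition.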

Each structure is given as a SMILES string.

T1 sequence (P56817 46-457 limits assumed): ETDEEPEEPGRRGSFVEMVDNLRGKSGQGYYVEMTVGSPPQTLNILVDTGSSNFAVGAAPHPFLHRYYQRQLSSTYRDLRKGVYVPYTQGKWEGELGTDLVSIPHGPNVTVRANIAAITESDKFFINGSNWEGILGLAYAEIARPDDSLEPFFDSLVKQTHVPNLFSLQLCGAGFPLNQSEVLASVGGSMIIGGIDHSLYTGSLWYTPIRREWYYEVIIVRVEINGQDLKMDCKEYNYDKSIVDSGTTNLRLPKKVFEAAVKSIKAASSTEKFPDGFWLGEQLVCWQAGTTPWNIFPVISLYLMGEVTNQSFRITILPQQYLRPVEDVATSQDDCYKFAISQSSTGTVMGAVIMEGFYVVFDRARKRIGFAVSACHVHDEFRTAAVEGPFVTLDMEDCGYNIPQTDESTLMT

As a reminder, the EC50 is the concentration that produces a half-maximal response. Read a high EC50 as a less potent agent. For orientation: IC50 means the point on the concentration scale where inhibition reaches its midpoint. High values mean a need for much substance, low ones inhibition by little substance. On to `Cc1cccc2nc(C(=O)Nc3nc4cc(-c5cccc(C(F)(F)F)c5F)ccc4[nH]3)cn12` [Example 53, 5-Methyl-imidazo[1,2-a]pyridine-2-carboxylic acid [5-(2-fluoro-3-trifluoromethyl-phenyl)-1H-benzoimidazol-2-yl]-amide], for which the concentration for a half-maximal effect (EC50) in experiment [1] came out at 0.23 µM. Also, 0.26 µM corresponded to half-maximal inhibition at BACE-1 enzyme (IC50).
In turn, `CN1CCN(Cc2cccc3nc(C(=O)Nc4nc5cc(-c6cccc(C(F)(F)F)c6)ccc5[nH]4)cn23)CC1` [Example 10, 5-(4-Methyl-piperazin-1-ylmethyl)-imidazo[1,2-a]pyridine-2-carboxylic acid [5-(3-trifluoromethyl-phenyl)-1H-benzoimidazol-2-yl]-amide] registered an EC50 in experiment [1] of 2.53 µM. Also, at BACE-1 enzyme, the half-inhibitory concentration (IC50) was 0.3 µM.
In experiment [1], `CNC(=O)c1cccc2nc(C(=O)Nc3nc4cc(-c5cc(F)cc(Cl)c5)ccc4[nH]3)cn12` [Example 226, Imidazo[1,2-a]pyridine-2,5-dicarboxylic acid 2-{[5-(3-chloro-5-fluoro-phenyl)-1H-benzoimidazol-2-yl]-amide} 5-methylamide] returned an EC50 of 2.14 µM. In addition, the IC50 against BACE-1 enzyme is 0.29 µM.
In the same order, the values of `Cc1cccc2nc(C(=O)Nc3nc4cc(-c5cccc(C(F)(F)F)c5)ccc4[nH]3)cn12` [Example 1, 5-Methyl-imidazo[1,2-a]pyridine-2-carboxylic acid[5-(3-trifluoromethyl-phenyl)-1H-benzoimidazol-2-yl]-amide] are 0.53 µM and 0.32 µM.
In the same order, the values of `O=C(Nc1nc2cc(-c3cccc(C(F)(F)F)c3)ccc2[nH]1)c1cn2cc(CN3CCOCC3)ccc2n1` [Example 182, 6-Morpholin-4-ylmethyl-imidazo[1,2-a]pyridine-2-carboxylic acid [5-(3-trifluoromethyl-phenyl)-1H-benzoimidazol-2-yl]-amide] are 0.54 µM and 0.46 µM.
In the same order, the values of `CNCc1cccn2cc(C(=O)Nc3nc4cc(-c5cccc(C(F)(F)F)c5)ccc4[nH]3)nc12` [Example 196, 8-Methylaminomethyl-imidazo[1,2-a]pyridine-2-carboxylic acid [5-(3-trifluoromethyl-phenyl)-1H-benzoimidazol-2-yl]-amide] are 5.96 µM and 0.45 µM.
Turning to `O=C(Nc1nc2cc(-c3cccc(OC(F)(F)F)c3)ccc2[nH]1)c1cn2ccccc2n1` [Example 117, Imidazo[1,2-a]pyridine-2-carboxylic acid [5-(3-trifluoromethoxy-phenyl)-1H-benzoimidazol-2-yl]-amide], a half-maximal response in experiment [1] (EC50) required 3.67 µM. Besides, on BACE-1 enzyme, half-maximal inhibition (IC50) was put at 0.54 µM.
In experiment [1], `O=C(Nc1nc2cc(-c3cccc(C(F)(F)F)c3)ccc2[nH]1)c1cn2c(CO)cccc2n1` [Example 161, 5-Hydroxymethyl-imidazo[1,2-a]pyridine-2-carboxylic acid [5-(3-trifluoromethyl-phenyl)-1H-benzoimidazol-2-yl]-amide] came in with an EC50 of 2.87 µM. On BACE-1 enzyme, inhibition was half-maximal at 0.52 µM (IC50).
In the same order, the values of `O=C(Nc1nc2cc(-c3cccc(C(F)(F)F)c3)ccc2[nH]1)c1cn2cc(CN3CCCC3)ccc2n1` [Example 179, 6-Pyrrolidin-1-ylmethyl-imidazo[1,2-a]pyridine-2-carboxylic acid [5-(3-trifluoromethyl-phenyl)-1H-benzoimidazol-2-yl]-amide] are 4.74 µM and 0.55 µM.
In the same order, the values of `Cc1cccc2nc(C(=O)Nc3nc4cc(-c5ccc(F)c(F)c5)ccc4[nH]3)cn12` [Example 63, 5-Methyl-imidazo[1,2-a]pyridine-2-carboxylic acid [5-(3,4-difluoro-phenyl)-1H-benzoimidazol-2-yl]-amide] are 1.32 µM and 1.15 µM.
Consider `O=C(Nc1nc2cc(-c3cccc(C(F)(F)F)c3)ccc2[nH]1)c1cn2ccc(CN3CCOCC3)cc2n1` [Example 201, 7-Morpholin-4-ylmethyl-imidazo[1,2-a]pyridine-2-carboxylic acid [5-(3-trifluoromethyl-phenyl)-1H-benzoimidazol-2-yl]-amide], for which the 50% effective concentration (EC50) in experiment [1] is 0.87 µM. The same compound yielded an IC50 against BACE-1 enzyme of 0.97 µM.
`CN1CC=C(c2cccc3nc(C(=O)Nc4nc5cc(-c6cccc(C(F)(F)F)c6)ccc5[nH]4)cn23)CC1` [Example 215, 5-(1-methyl-1,2,3,6-tetrahydropyridin-4-yl)-N-{5-[3-(trifluoromethyl)phenyl]-1H-benzimidazol-2-yl}imidazo[1,2-a]pyridine-2-carboxamide] yielded an EC50 in experiment [1] of 5.35 µM. On BACE-1 enzyme, this compound returned a half-maximal inhibitory concentration (IC50) of 0.41 µM.
Regarding `CN(C)Cc1cccc2nc(C(=O)Nc3nc4cc(-c5cccc(C(F)(F)F)c5)ccc4[nH]3)cn12` [Example 163, 5-Dimethylaminomethyl-imidazo[1,2-a]pyridine-2-carboxylic acid [5-(3-trifluoromethyl-phenyl)-1H-benzoimidazol-2-yl]-amide], the EC50 in experiment [1] was found to be 1.11 µM. On BACE-1 enzyme, this compound yielded an IC50 of 0.36 µM.
`COCCCNCc1cccc2nc(C(=O)Nc3nc4cc(-c5cccc(C(F)(F)F)c5)ccc4[nH]3)cn12` [Example 174, 5-[(3-Methoxy-propylamino)-methyl]-imidazo[1,2-a]pyridine-2-carboxylic acid [5-(3-trifluoromethyl-phenyl)-1H-benzoimidazol-2-yl]-amide] returned an EC50 in experiment [1] of 4.4 µM. Moreover, the midpoint of inhibition against BACE-1 enzyme, the IC50, lay at 0.93 µM.
In the same order, the values of `Cc1cccc2nc(C(=O)Nc3nc4cc(-c5ccc(F)c(C(F)(F)F)c5)ccc4[nH]3)cn12` [Example 48, 5-Methyl-imidazo[1,2-a]pyridine-2-carboxylic acid [5-(4-fluoro-3-trifluoromethyl-phenyl)-1H-benzoimidazol-2-yl]-amide] are 0.18 µM and 0.49 µM.
Turning to `Cc1cccc2nc(C(=O)Nc3nc4cc(C5=CCCCC5)ccc4[nH]3)cn12` [Example 83, 5-Methyl-imidazo[1,2-a]pyridine-2-carboxylic acid (5-cyclohex-1-enyl-1H-benzoimidazol-2-yl)-amide], the EC50 in experiment [1] worked out at 4.17 µM. The compound also gave a half-maximal inhibitory concentration (IC50) at BACE-1 enzyme of 1.45 µM.
The compound `Cc1cccc2nc(C(=O)Nc3nc4cc(OCc5cccc(C(F)(F)F)c5)ccc4[nH]3)cn12` [Example 26, 5-Methyl-imidazo[1,2-a]pyridine-2-carboxylic acid [5-(3-trifluoromethyl-benzyloxy)-1H-benzoimidazol-2-yl]-amide] had an EC50 in experiment [1] of 1.21 µM. The midpoint of inhibition against BACE-1 enzyme, the IC50, lay at 0.42 µM.
In the same order, the values of `Cc1cccc2nc(C(=O)Nc3nc4cc(-c5ccc(F)c(Cl)c5)ccc4[nH]3)cn12` [Example 64, 5-Methyl-imidazo[1,2-a]pyridine-2-carboxylic acid [5-(3-chloro-4-fluoro-phenyl)-1H-benzoimidazol-2-yl]-amide] are 0.14 µM and 0.31 µM.
In experiment [1], `CC(C)CN(C)Cc1ccc2nc(C(=O)Nc3nc4cc(-c5cccc(C(F)(F)F)c5)ccc4[nH]3)cn2c1` [Example 184, 6-[(Isobutyl-methyl-amino)-methyl]-imidazo[1,2-a]pyridine-2-carboxylic acid [5-(3-trifluoromethyl-phenyl)-1H-benzoimidazol-2-yl]-amide] had an EC50 of 4.32 µM. For the same compound, at BACE-1 enzyme, the 50% inhibitory concentration (IC50) is 0.83 µM.
In the same order, the values of `COc1c(-c2ccc3[nH]c(NC(=O)c4cn5c(C)cccc5n4)nc3c2)cccc1C(F)(F)F` [Example 110, 5-Methyl-imidazo[1,2-a]pyridine-2-carboxylic acid [5-(2-methoxy-3-trifluoromethyl-phenyl)-1H-benzoimidazol-2-yl]-amide] are 0.75 µM and 0.4 µM.
On to `CN(Cc1ccccc1)Cc1ccc2nc(C(=O)Nc3nc4cc(-c5cccc(C(F)(F)F)c5)ccc4[nH]3)cn2c1` [Example 185, 6-[(Benzyl-methyl-amino)-methyl]-imidazo[1,2-a]pyridine-2-carboxylic acid [5-(3-trifluoromethyl-phenyl)-1H-benzoimidazol-2-yl]-amide], for which, in experiment [1], the EC50 is 1.93 µM. In addition, the 50% inhibitory concentration (IC50) against BACE-1 enzyme amounted to 0.62 µM.
Compound `CC(C)(C)NCc1cccc2nc(C(=O)Nc3nc4cc(-c5cccc(C(F)(F)F)c5)ccc4[nH]3)cn12` [Example 172, 5-(tert-Butylamino-methyl)-imidazo[1,2-a]pyridine-2-carboxylic acid [5-(3-trifluoromethyl-phenyl)-1H-benzoimidazol-2-yl]-amide] came in with an EC50 in experiment [1] of 1.92 µM. On BACE-1 enzyme, this compound returned an IC50 of 0.31 µM.
In experiment [1], `Cc1cccc2nc(C(=O)Nc3nc4cc(-c5cccc(C#N)c5)ccc4[nH]3)cn12` [Example 82, 5-Methyl-imidazo[1,2-a]pyridine-2-carboxylic acid [5-(3-cyano-phenyl)-1H-benzoimidazol-2-yl]-amide] had an EC50 of 1.1 µM. The same compound had an IC50 against BACE-1 enzyme of 2.21 µM.
